In PubChem BioAssay AID743442 (Broad Institute, 2014):
Calls of active or inactive are those of the source.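 How the source made its calls: active means cell-killing curve, signal falling, whose fitted AC50 is at most twice the top tested dose; inconclusive means flat fit with a moderate signal drop, or a poor fit; inactive means the rest.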

What was measured:
[1] = tested on: HEK293T viability, ATP luminescence (CellTiter-Glo), 72 h; test: HEK293T cell cytotoxicity, dose response, cytotoxicity control, CellTiter-Glo luminescence, dry powder samples, set 14 (AID 743442)
[2] = as above; settings: HEK293T viability, ATP luminescence (CellTiter-Glo), 72 h

SMILES: O=C(COc1ccc(C(=O)NC2CCCCC2)cc1)Nc1cccc(C(F)(F)F)c1
- AC50 [1]: > 52 µM (inactive)

SMILES: Cc1ccc(CNC(=O)CSc2c3c(nc4ccc(Cl)cc24)CCCC3)o1
- activity change, negative = cytotoxicity ([2]; at 26 µM (top of the series)): -8.3% (inactive)

SMILES: Cc1ccc(NC(=O)COc2ccccc2C(=O)NCCN(C)C)cc1
- activity change, negative = cytotoxicity ([2]; at 26 µM (top of the series)): -1.02% (inactive)

SMILES: O=C(CSc1c2c(nc3ccc(Cl)cc13)CCCC2)N1CCCCC1
- activity change, negative = cytotoxicity ([2]; at 26 µM (top of the series)): -5.3% (inactive)

SMILES: CCN(CC)C(=O)CSc1c2c(nc3ccc(Cl)cc13)CCCC2
- activity change, negative = cytotoxicity ([2]; at 26 µM (top of the series)): 0.809% (inactive)

SMILES: CC(Sc1c2c(nc3ccc(Cl)cc13)CCCC2)C(=O)NCc1ccco1 (stereo not given)
- activity change, negative = cytotoxicity ([2]; at 26 µM (top of the series)): -3.71% (inactive)

SMILES: COC(=O)CCCN(C)C(=O)c1ccc(OCC(=O)Nc2cccc(OC)c2)cc1
- activity change, negative = cytotoxicity ([2]; at 26 µM (top of the series)): -4.85% (inactive)

SMILES: O=C(CSc1c2c(nc3ccc(Cl)cc13)CCCC2)NCc1ccc2c(c1)OCO2
- activity change, negative = cytotoxicity ([2]; at 26 µM (top of the series)): 0.001% (inactive)

SMILES: O=C(CSc1ccc2ccccc2n1)NCc1ccco1
- activity change, negative = cytotoxicity ([2]; at 26 µM (top of the series)): -3.39% (inactive)

SMILES: O=C(CSc1c2c(nc3ccc(Cl)cc13)CCCC2)NCc1ccccn1
- activity change, negative = cytotoxicity ([2]; at 26 µM (top of the series)): -4.85% (inactive)

SMILES: O=C(CSc1c2c(nc3ccc(Cl)cc13)CCCC2)NCC1CCCO1 (stereo not given)
- activity change, negative = cytotoxicity ([2]; at 26 µM (top of the series)): -12.2% (inactive)

SMILES: O=C(CSc1c2c(nc3ccc(Cl)cc13)CCCC2)NC1CCCC1
- activity change, negative = cytotoxicity ([2]; at 26 µM (top of the series)): -7.43% (inactive)

SMILES: NC(=O)C1CCN(C(=O)c2ccc(OCC(=O)Nc3cccc(C(F)(F)F)c3)cc2)CC1
- activity change, negative = cytotoxicity ([2]; at 26 µM (top of the series)): -5.23% (inactive)

SMILES: O=C(CSc1c2c(nc3ccc(Cl)cc13)CCCC2)NC1CCN(Cc2ccccc2)CC1
- activity change, negative = cytotoxicity ([2]; at 26 µM (top of the series)): -3.75% (inactive)

SMILES: CN(C(=O)COc1ccccc1C(=O)NCCc1ccccc1)c1ccccc1
- AC50 [1]: > 52 µM (inactive)

SMILES: COc1ccc(OCCNC(=O)c2ccccc2OCC(=O)Nc2ccc(NC(C)=O)cc2)cc1
- activity change, negative = cytotoxicity ([2]; at 26 µM (top of the series)): -1.7% (inactive)

SMILES: CN(CCOc1ccccc1)C(=O)c1ccc(OCC(=O)Nc2cccc(C(F)(F)F)c2)cc1
- activity change, negative = cytotoxicity ([2]; at 26 µM (top of the series)): -0.662% (inactive)

SMILES: COc1ccc(CNC(=O)CSc2c3c(nc4ccc(Cl)cc24)CCCC3)cc1
- activity change, negative = cytotoxicity ([2]; at 26 µM (top of the series)): -6.81% (inactive)

SMILES: Cc1cccc(CCNC(=O)CSc2c3c(nc4ccc(Cl)cc24)CCCC3)c1
- activity change, negative = cytotoxicity ([2]; at 26 µM (top of the series)): -5.98% (inactive)

SMILES: COc1ccc(NC(=O)CSc2c3c(nc4ccc(Cl)cc24)CCCC3)cc1
- activity change, negative = cytotoxicity ([2]; at 26 µM (top of the series)): -8.96% (inactive)

SMILES: CCN1CCCC1CNC(=O)CSc1c2c(nc3ccc(Cl)cc13)CCCC2 (stereo not given)
- activity change, negative = cytotoxicity ([2]; at 12 µM (top of the series)): -4.32% (inactive)

SMILES: O=C(CSc1c2c(nc3ccc(Cl)cc13)CCCC2)Nc1ccc(Cl)cc1
- AC50 [1]: > 52 µM (inactive)

SMILES: COc1ccc(N(Cc2cccs2)C(=O)COc2ccccc2C(=O)Nc2ccccc2)cc1
- activity change, negative = cytotoxicity ([2]; at 26 µM (top of the series)): -7.68% (inactive)

SMILES: CCOc1ccc(NC(=O)COc2ccc(C(=O)N3CCC(C(N)=O)CC3)cc2OC)cc1
- activity change, negative = cytotoxicity ([2]; at 26 µM (top of the series)): -5.36% (inactive)

SMILES: Cc1ccc(CNC(=O)CSc2c3c(nc4cc(Cl)ccc24)CCCC3)o1
- activity change, negative = cytotoxicity ([2]; at 26 µM (top of the series)): -11.4% (inactive)

SMILES: CN(C(=O)COc1ccccc1C(=O)Nc1ccccc1)c1ccccc1
- activity change, negative = cytotoxicity ([2]; at 26 µM (top of the series)): -12.4% (inactive)

SMILES: COCCN(Cc1ccco1)C(=O)CSc1c2c(nc3cc(Cl)ccc13)CCCC2
- activity change, negative = cytotoxicity ([2]; at 26 µM (top of the series)): -8.9% (inactive)

SMILES: CCN(CC)CCCNC(=O)c1ccc(OCC(=O)Nc2ccccc2C(F)(F)F)c(OC)c1
- AC50 [1]: > 52 µM (inactive)

SMILES: O=C(O)CSc1c2c(nc3cc(C(=O)NCc4cccs4)ccc13)CCCC2
- activity change, negative = cytotoxicity ([2]; at 26 µM (top of the series)): -5.37% (inactive)

SMILES: CN(CCNC(=O)CSc1c2c(nc3ccc(Cl)cc13)CCCC2)Cc1ccccc1
- activity change, negative = cytotoxicity ([2]; at 26 µM (top of the series)): -3.21% (inactive)

SMILES: O=C(CSc1c2c(nc3ccccc13)CCCC2)NCc1ccco1
- activity change, negative = cytotoxicity ([2]; at 26 µM (top of the series)): -6.44% (inactive)

SMILES: COCCNC(=O)CSc1c2c(nc3ccc(Cl)cc13)CCCC2
- activity change, negative = cytotoxicity ([2]; at 26 µM (top of the series)): -7.42% (inactive)

SMILES: O=C(COc1ccc(C(=O)N2CCN(C(=O)C3CC3)CC2)cc1)Nc1cccc(C(F)(F)F)c1
- activity change, negative = cytotoxicity ([2]; at 26 µM (top of the series)): -7.18% (inactive)

SMILES: Cn1c(=O)cc(SCC(=O)NCc2ccco2)c2ccccc21
- activity change, negative = cytotoxicity ([2]; at 26 µM (top of the series)): 0.641% (inactive)

SMILES: CC(C)NC(=O)CSc1c2c(nc3ccc(Cl)cc13)CCCC2
- activity change, negative = cytotoxicity ([2]; at 26 µM (top of the series)): -3.4% (inactive)

SMILES: CCOC(=O)N1CCC(NC(=O)CSc2c3c(nc4ccc(Cl)cc24)CCCC3)CC1
- activity change, negative = cytotoxicity ([2]; at 26 µM (top of the series)): -0.517% (inactive)

SMILES: O=C(COc1ccccc1C(=O)NCCOc1ccc(Cl)cc1)Nc1cccc(Cl)c1
- activity change, negative = cytotoxicity ([2]; at 26 µM (top of the series)): -30.7% (inactive)

SMILES: Cn1cc(SCC(=O)NCc2ccco2)c2ccccc21
- activity change, negative = cytotoxicity ([2]; at 26 µM (top of the series)): -10.8% (inactive)

SMILES: COc1cc(CNCCCN2CCOCC2)ccc1OCC(=O)Nc1cccc(C(F)(F)F)c1
- AC50 [1]: > 52 µM (inactive)

SMILES: O=C(CSc1c2c(nc3ccc(Cl)cc13)CCCC2)NCCN1CCOCC1
- activity change, negative = cytotoxicity ([2]; at 26 µM (top of the series)): -9.3% (inactive)

SMILES: O=C(CSc1c2c(nc3ccc(Cl)cc13)CCCC2)NCC1(c2ccccc2)CCCC1
- activity change, negative = cytotoxicity ([2]; at 26 µM (top of the series)): -8.09% (inactive)

SMILES: O=C(CSc1c2c(nc3ccc(Cl)cc13)CCCC2)N1CCC(N2CCCCC2)CC1
- activity change, negative = cytotoxicity ([2]; at 26 µM (top of the series)): -3.26% (inactive)

SMILES: O=C(CSc1c2c(nc3ccc(Cl)cc13)CCCC2)NCCN1CCN(Cc2ccccc2)CC1
- activity change, negative = cytotoxicity ([2]; at 26 µM (top of the series)): -10.3% (inactive)

SMILES: O=C(CSc1cccc2cccnc12)NCc1ccco1
- activity change, negative = cytotoxicity ([2]; at 26 µM (top of the series)): -4.54% (inactive)

SMILES: CCCCOc1ccc(NC(=O)COc2ccccc2C(=O)NCCOc2ccccc2)cc1
- activity change, negative = cytotoxicity ([2]; at 26 µM (top of the series)): -30.8% (inactive)

SMILES: CCOC(=O)C1CCN(C(=O)c2ccc(OCC(=O)N3CCOCC3)c(OC)c2)CC1
- activity change, negative = cytotoxicity ([2]; at 26 µM (top of the series)): -7.89% (inactive)

SMILES: O=C(COc1ccccc1C(=O)NCc1ccccc1)Nc1ccccc1
- activity change, negative = cytotoxicity ([2]; at 26 µM (top of the series)): -5.85% (inactive)

SMILES: Cc1cccc(NC(=O)CSc2c3c(nc4ccc(Cl)cc24)CCCC3)n1
- activity change, negative = cytotoxicity ([2]; at 26 µM (top of the series)): -9.51% (inactive)

SMILES: O=C(CSc1c2c(nc3ccc(Cl)cc13)CCCC2)N1CCOCC1
- activity change, negative = cytotoxicity ([2]; at 26 µM (top of the series)): -5.19% (inactive)

SMILES: O=C(CSc1c2c(nc3ccc(Cl)cc13)CCCC2)NC1CC1
- activity change, negative = cytotoxicity ([2]; at 26 µM (top of the series)): -2.74% (inactive)

SMILES: CN(C)c1ccc(NC(=O)COc2ccccc2C(=O)N2CCOCC2)cc1
- activity change, negative = cytotoxicity ([2]; at 26 µM (top of the series)): -0.871% (inactive)

SMILES: O=C(COc1ccc(C(=O)N2CCC2)cc1)Nc1cccc(C(F)(F)F)c1
- activity change, negative = cytotoxicity ([2]; at 26 µM (top of the series)): -6.82% (inactive)

SMILES: O=C(CSc1c2c(nc3ccc(Cl)cc13)CCCC2)NCc1ccc(F)cc1
- activity change, negative = cytotoxicity ([2]; at 26 µM (top of the series)): -14.3% (inactive)

SMILES: CN(C(=O)COc1ccccc1C(N)=O)c1ccccc1
- activity change, negative = cytotoxicity ([2]; at 26 µM (top of the series)): -5.5% (inactive)

SMILES: COc1cc(C(=O)NCCCN(C)C)ccc1OCC(=O)Nc1cccc(C(F)(F)F)c1
- activity change, negative = cytotoxicity ([2]; at 26 µM (top of the series)): -18.3% (inactive)

SMILES: O=C(CSc1c2c(nc3ccc(Cl)cc13)CCCC2)N1CCN(Cc2ccccc2)CC1
- AC50 [1]: > 52 µM (inactive)

SMILES: O=C(CSc1c2c(nc3cc(Cl)ccc13)CCCC2)N(Cc1ccco1)C1CCCC1
- activity change, negative = cytotoxicity ([2]; at 26 µM (top of the series)): -4.09% (inactive)

SMILES: O=C(CSc1c2c(nc3ccc(Cl)cc13)CCCC2)NCCCc1ccccc1
- activity change, negative = cytotoxicity ([2]; at 26 µM (top of the series)): -6.44% (inactive)

SMILES: CCCNC(=O)CSc1c2c(nc3ccc(Cl)cc13)CCCC2
- activity change, negative = cytotoxicity ([2]; at 26 µM (top of the series)): -1.94% (inactive)

SMILES: CC1(C)CC(NC(=O)c2ccc(OCC(=O)Nc3cccc(C(F)(F)F)c3)cc2)CC(C)(C)N1
- activity change, negative = cytotoxicity ([2]; at 26 µM (top of the series)): -24.7% (inactive)

SMILES: O=C(CSc1c2c(nc3ccc(Cl)cc13)CCCC2)NCc1cccnc1
- activity change, negative = cytotoxicity ([2]; at 26 µM (top of the series)): -3.63% (inactive)

SMILES: O=C(CSc1c2c(nc3ccc(Cl)cc13)CCCC2)NCc1ccco1
- activity change, negative = cytotoxicity ([2]; at 26 µM (top of the series)): -6.1% (inactive)

SMILES: Cc1ccc(CNC(=O)CSc2c3c(nc4ccc(Cl)cc24)CCCC3)cc1
- activity change, negative = cytotoxicity ([2]; at 26 µM (top of the series)): -7.44% (inactive)

SMILES: O=C(CSc1c2c(nc3ccc(Cl)cc13)CCCC2)Nc1ccccc1
- activity change, negative = cytotoxicity ([2]; at 26 µM (top of the series)): -10.7% (inactive)

SMILES: Cc1ccc2nc(Cl)cc(SCC(=O)NCc3ccco3)c2c1
- activity change, negative = cytotoxicity ([2]; at 26 µM (top of the series)): -11.1% (inactive)

SMILES: O=C(COc1ccc(C(=O)NCC2CCCO2)cc1)Nc1cccc(C(F)(F)F)c1 (stereo not given)
- activity change, negative = cytotoxicity ([2]; at 26 µM (top of the series)): -6.65% (inactive)

SMILES: CN(C(=O)COc1ccc(Cl)cc1C(N)=O)c1ccccc1
- activity change, negative = cytotoxicity ([2]; at 26 µM (top of the series)): 1.16% (inactive)

SMILES: O=C(CSc1c2c(nc3ccc(Cl)cc13)CCCC2)NCc1cccs1
- activity change, negative = cytotoxicity ([2]; at 26 µM (top of the series)): -5.31% (inactive)

SMILES: CCOC(=O)C1CCN(C(=O)c2ccc(OCC(=O)Nc3ccc(OCC)cc3)c(OC)c2)CC1
- activity change, negative = cytotoxicity ([2]; at 26 µM (top of the series)): -2.45% (inactive)

SMILES: O=C(CSc1c2c(nc3ccc(Cl)cc13)CCCC2)N1CCNC1=O
- activity change, negative = cytotoxicity ([2]; at 26 µM (top of the series)): -2.06% (inactive)
